Source: BindingDB's records for patent US20260062387 (Mitsubishi Tanabe Pharma, 2026)
pIC50: −log10 of the molar value.

How the values were obtained:
Assay in all cases: SIK1, SIK2, and SIK3 inhibition test
[1] = target: Serine/threonine-protein kinase SIK2 (Homo sapiens, UniProt Q9H0K1)
Protocol: (§1) The inhibitory activity of the compound for SIK1, SIK2, and SIK3 enzymes was assayed by measuring the amount of ADP, an enzyme reaction product, with ADP-Glo™ Max Assay (Promega). Enzymes, specifically, GST-tagged SIK1 (Carna Biosciences, Inc.), GST-tagged SIK2 (Carna Biosciences, Inc.), and GST-tagged SIK3 (SignalChem) were prepared in a reaction buffer (15 mM tris-hydrochloric acid buffer (pH 7.5), 0.001% Triton X-100, 0.01% BSA) so that the final concentration would be 20 nM, 3 nM, and 100 nM. Enzyme solutions were thus formed. In a reaction buffer, AMARA Peptide (SignalChem) as a substrate with a final concentration of 200 μM (SIK1, SIK2) or 100 μM (SIK3), ATP (Promega) with a final concentration of 1 mM, and magnesium chloride with a final concentration of 5 mM were prepared. Substrate solutions were thus formed. The enzyme solution, the substrate solution, and a DMSO solution of a concentration of the test compound were mixed together and reacted at room temperature for 2 hours. After the reaction, ADP-Glo™ Reagent (Promega) was added, and the reaction was performed at room temperature for 30 minutes. Subsequently, ADP-Glo™ Max Detection Reagent (Promega) was added, and the reaction was performed at room temperature for 30 minutes. The emission by the luciferase reaction was measured with PHERAstar FSX (BMG LABTECH).

[2] = target: Serine/threonine-protein kinase SIK1 (Homo sapiens, UniProt P57059)
Protocol: as §1

[3] = target: Serine/threonine-protein kinase SIK3 (Homo sapiens, UniProt Q9Y2K2)
Protocol: as §1

Chain of Serine/threonine-protein kinase SIK1 (P57059 whole entry): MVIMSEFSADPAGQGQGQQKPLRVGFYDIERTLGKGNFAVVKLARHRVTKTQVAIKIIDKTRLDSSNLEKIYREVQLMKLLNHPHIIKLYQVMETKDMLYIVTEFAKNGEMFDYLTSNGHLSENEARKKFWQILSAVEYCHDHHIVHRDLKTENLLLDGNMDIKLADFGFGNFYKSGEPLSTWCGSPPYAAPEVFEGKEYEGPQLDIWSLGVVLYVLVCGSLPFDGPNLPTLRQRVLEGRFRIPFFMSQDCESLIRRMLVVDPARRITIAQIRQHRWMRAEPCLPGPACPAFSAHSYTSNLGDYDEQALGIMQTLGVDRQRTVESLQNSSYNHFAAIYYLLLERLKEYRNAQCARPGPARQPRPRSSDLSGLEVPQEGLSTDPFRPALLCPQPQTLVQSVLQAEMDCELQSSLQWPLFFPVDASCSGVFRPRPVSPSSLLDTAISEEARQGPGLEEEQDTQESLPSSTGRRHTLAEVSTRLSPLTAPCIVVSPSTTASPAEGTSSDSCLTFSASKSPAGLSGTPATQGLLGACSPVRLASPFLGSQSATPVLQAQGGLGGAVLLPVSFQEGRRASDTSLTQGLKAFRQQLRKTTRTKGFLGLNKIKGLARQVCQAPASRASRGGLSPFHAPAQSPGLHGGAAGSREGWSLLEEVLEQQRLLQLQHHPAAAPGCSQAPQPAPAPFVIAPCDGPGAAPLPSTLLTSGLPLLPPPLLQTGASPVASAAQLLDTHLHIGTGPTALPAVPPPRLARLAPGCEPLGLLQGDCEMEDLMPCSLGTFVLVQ
Chain of Serine/threonine-protein kinase SIK2 (Q9H0K1 whole entry): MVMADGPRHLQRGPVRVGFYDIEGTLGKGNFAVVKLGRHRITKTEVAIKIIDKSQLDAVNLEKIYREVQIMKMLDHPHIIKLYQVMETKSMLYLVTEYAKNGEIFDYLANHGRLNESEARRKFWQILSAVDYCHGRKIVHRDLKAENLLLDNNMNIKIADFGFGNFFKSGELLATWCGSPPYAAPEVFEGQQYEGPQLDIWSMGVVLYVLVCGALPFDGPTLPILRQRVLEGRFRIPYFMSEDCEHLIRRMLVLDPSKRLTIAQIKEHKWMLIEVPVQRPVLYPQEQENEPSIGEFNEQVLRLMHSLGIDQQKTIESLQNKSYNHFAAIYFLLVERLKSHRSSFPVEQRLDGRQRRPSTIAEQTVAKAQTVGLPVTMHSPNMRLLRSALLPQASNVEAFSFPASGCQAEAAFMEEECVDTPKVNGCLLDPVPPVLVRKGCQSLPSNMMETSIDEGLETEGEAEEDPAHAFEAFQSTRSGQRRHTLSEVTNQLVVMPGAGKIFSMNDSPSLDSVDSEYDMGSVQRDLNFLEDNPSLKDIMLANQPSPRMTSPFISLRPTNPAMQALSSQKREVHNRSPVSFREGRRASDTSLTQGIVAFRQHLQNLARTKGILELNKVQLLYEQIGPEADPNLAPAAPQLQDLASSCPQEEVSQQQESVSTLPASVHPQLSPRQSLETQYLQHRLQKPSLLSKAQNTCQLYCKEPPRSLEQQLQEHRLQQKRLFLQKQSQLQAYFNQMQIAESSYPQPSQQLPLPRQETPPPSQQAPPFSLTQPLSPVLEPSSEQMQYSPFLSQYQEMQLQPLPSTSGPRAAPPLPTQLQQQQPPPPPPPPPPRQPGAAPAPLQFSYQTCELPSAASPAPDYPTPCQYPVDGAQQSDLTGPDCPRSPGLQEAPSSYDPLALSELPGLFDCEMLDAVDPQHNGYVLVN
Chain of Serine/threonine-protein kinase SIK3 (Q9Y2K2 whole entry): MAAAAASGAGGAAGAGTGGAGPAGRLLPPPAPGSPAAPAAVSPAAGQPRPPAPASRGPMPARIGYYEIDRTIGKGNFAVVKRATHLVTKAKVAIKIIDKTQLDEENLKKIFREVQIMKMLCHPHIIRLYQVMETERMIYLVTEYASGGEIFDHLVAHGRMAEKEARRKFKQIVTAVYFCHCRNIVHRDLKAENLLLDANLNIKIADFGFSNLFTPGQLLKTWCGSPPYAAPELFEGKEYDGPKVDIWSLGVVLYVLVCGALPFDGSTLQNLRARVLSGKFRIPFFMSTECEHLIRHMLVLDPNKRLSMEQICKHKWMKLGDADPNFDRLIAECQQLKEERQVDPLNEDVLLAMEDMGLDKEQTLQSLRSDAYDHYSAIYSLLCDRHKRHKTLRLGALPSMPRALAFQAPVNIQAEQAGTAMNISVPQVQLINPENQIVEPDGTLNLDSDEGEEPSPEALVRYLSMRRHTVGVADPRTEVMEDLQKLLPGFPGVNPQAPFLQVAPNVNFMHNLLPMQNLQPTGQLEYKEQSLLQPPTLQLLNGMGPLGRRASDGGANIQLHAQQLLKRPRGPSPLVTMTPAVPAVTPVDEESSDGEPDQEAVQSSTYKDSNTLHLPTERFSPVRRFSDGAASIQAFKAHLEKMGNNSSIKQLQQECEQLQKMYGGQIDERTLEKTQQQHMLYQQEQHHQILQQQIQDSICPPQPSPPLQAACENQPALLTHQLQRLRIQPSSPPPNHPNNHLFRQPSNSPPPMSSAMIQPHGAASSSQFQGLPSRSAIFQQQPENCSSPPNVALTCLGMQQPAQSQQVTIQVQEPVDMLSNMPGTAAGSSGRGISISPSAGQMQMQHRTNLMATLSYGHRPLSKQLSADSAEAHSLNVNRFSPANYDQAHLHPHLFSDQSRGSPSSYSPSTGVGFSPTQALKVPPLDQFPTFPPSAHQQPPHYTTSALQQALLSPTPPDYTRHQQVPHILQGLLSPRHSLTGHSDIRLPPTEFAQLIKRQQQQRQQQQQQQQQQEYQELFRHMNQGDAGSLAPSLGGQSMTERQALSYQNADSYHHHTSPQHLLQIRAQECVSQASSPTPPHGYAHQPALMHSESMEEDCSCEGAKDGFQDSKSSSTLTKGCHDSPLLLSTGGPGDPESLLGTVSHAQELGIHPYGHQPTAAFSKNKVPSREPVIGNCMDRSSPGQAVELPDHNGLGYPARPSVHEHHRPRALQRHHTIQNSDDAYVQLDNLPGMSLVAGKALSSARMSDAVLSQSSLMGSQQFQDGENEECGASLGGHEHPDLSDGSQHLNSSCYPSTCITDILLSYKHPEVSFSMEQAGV

SMILES	pIC50 [1]	pIC50 [2]	pIC50 [3]
COc1cc(-c2c3c(OC(F)F)cc(-c4cnn(C)c4)cc3nn2C)cc(OC(F)F)c1C(=O)N1CC(O)(C(F)(F)F)C1 [US20260062387, Example 62]	8.41	8.10	7.98
COc1cc(-c2c3c(OC(F)F)cc(-c4cn(C)nn4)cc3nn2C)cc(OC(F)F)c1C(=O)N1CC(O)(C(F)F)C1 [US20260062387, Example 64]	8.05		7.80
COc1cc(-c2c3c(C(F)F)cc(-c4cnn(CCC(=O)N(C)C)c4)cc3nn2C)cc(OC(F)F)c1C(=O)N1CC(O)(C(F)(F)F)C1 [US20260062387, Example 65]	8.25	8.02	8.52

More lines, now with the values ahead:

pIC50 [1]	pIC50 [2]	pIC50 [3]	SMILES
8.21	8.52	8.17	COc1cc(-c2c3c(C(F)F)cc(-c4cnn(C[C@@H](C)O)c4)cc3nn2C)cc(OC(F)F)c1C(=O)N1CC(O)(C(F)(F)F)C1 [US20260062387, Example 71]
8.25	8.41		COc1cc(-c2c3c(C(F)F)cc(-c4cnn(C[C@H](C)O)c4)cc3nn2C)cc(OC(F)F)c1C(=O)N1CC(O)(C(F)(F)F)C1 [US20260062387, Example 72]
